# Test results: US11789029B2, “Temporal traumatic brain injury biomarkers and methods of use thereof” (ARIZONA BOARD OF REGENTS ON BEHALF OF ARIZONA STATE …, priority 2019, dated 2023)
# Entries after “also recorded” stand apart in the source; their conditions may differ. No end group written: not given here. bromoacetamide scaffold = not defined here
# Assays:
# CCI injury sections = experiment: Immunohistochemistry of biotinylated HCDR3 constructs on CCI injury sections; format: binding, mice; settings: for bioreactivity of control HCDR3 constructs on injured neural tissue: injured tissue at 1 or 7 days post-injury; for bioreactivity of chronic injury targeting HCDR3 constructs: 21 dpi tissue sections, 5 μM construct, Triton-X permeabilization
# Protocol: Mice were subject to CCI or sham (n=3 per group/sex) as described previously and perfused with 0.1 M phosphate buffer and 4% paraformaldehyde at specified timepoints. Brains were fixed overnight in 4% paraformaldehyde at 4° C. followed by immersion in 15% sucrose and then 30% sucrose. Brains were flash frozen on dry ice in optimal cutting temperature medium and stored at −80° C. Samples were sectioned coronally at 20 μm thickness.
# Tissue sections were incubated with excess streptavidin and biotin to block endogenous biotin using an Endogenous Biotin blocking kit (Thermo Fisher Scientific). After permeabilization with either 0.2% Triton-X 100 or Tween-20, 5 μM of biotinylated HCDR3-construct was incubated on tissue overnight at 4° C. Simultaneously, sections that served as controls were incubated with control HCDR3-construct or 1×PBS. Tissue sections were washed in 1×PBS and incubated with Alexa Fluor 555 streptavidin at room temperature for 2 hours, followed by 1×PBS washes and DAPI incubation for 5 minutes. Slides were imaged using fluorescence microscopy with Leica software.
# For NGS analysis, raw counts were first normalized to reads per million (RPM) to account for library differences. A normalized z-score was then used as a threshold to identify dAbs that were highly represented and specific to their distinct injury timepoint. Selected dAbs were then screened for enrichment factor and individual frequency. Fluorescence percentage per area was conducted with ordinary one way ANOVA followed by Dunnett's test for multiple comparisons. Statistical significance was determined as p<0.05. Identified proteins that met the false discovery rate (FDR) threshold of <0.01 were used in all ontological assessments to categorize biological processes and candidate pathways.
# tissue lysates = experiment: Immunoprecipitation-mass spectrometry with HCDR3 constructs as capture antibodies; format: binding, Mus musculus; settings: A2 with 1 dpi tissue lysates, SA1 with 7 dpi tissue lysates
# From the text: (§1) CCI and sham surgeries were completed as described previously. Mice were sacrificed at 1 d, 7 d, or 21 d post-injury (n=3/group) via transcardial perfusion with phosphate buffer, pH 7.4. The ipsilateral hemisphere of the brain was immediately dissected and homogenized in chilled lysis buffer (1×PBS, 1% Triton, protease inhibitor cocktail). Protein concentration of the homogenates was quantified with the Pierce BCA Protein Assay Kit (Thermo Fisher).
# (§2) Streptavidin-coupled Dynabeads (Thermo Fisher) were washed with 1×PBST with 0.1% Tween and incubated with 1 mg/mL tissue lysate for 1 hour at room temperature. Pre-cleared lysate was collected after separation from magnetic beads and incubated with 450 pmol of HCDR3-construct rotating overnight at 4° C. to form the immune complex. The immune complex was then incubated with Streptavidin-coupled Dynabeads for 1 hour at room temperature before antigen was eluted from beads by heating sample at 95° C. with SDS PAGE running buffer. Samples were run on a pre-cast 12% SDS-PAGE gel (Bio-Rad) and bands were excised. Gel bands were processed by ASU Biodesign Mass Spectrometry Facility for digestion and protein identification with the Thermo Orbitrap Fusion Lumos (Thermo Fisher).
# UniProt IDs of identified proteins were uploaded to the PANTHER classification system and searched against the Mus musculus reference database. […]
# [1] = molecular target: T1, citrate synthase, mitochondrial (Mus musculus, UniProt Q9CZU6); experiment: Immunoprecipitation-mass spectrometry, candidate protein; format: binding
# T1 construct: The ipsilateral hemisphere of the brain was immediately dissected and homogenized in chilled lysis buffer; from tissue; host or cells: ipsilateral brain hemisphere lysate of CCI or sham mice
# T1 sequence (Q9CZU6 28-464): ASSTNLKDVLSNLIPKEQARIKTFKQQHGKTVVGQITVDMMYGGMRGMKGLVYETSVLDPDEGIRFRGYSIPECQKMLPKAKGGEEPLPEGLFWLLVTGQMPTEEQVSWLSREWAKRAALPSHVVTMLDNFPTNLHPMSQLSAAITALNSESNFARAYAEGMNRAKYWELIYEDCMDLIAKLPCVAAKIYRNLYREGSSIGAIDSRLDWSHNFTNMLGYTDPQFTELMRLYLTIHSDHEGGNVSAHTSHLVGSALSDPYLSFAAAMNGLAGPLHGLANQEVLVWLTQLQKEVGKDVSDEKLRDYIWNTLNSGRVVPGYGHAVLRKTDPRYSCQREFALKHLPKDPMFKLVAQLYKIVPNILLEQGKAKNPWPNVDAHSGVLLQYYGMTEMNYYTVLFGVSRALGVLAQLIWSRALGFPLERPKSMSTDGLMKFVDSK
# From the text: as §1, §2
# (§3) UniProt IDs of identified proteins were uploaded to the PANTHER classification system and searched against the Mus musculus reference database. Ontological assessments to characterize cellular localization, molecular function, biological processes, and pathways were conducted with PANTHER Overrepresentation test (Fisher's Exact test, p<0.05 using Benjamini Hochberg False Discovery Rate correction) with the GO Ontology database (released 2019-10-08).
# [2] = molecular target: T2, Succinate--CoA ligase [ADP-forming] subunit beta, mitochondrial (Mus musculus, UniProt Q9Z2I9); experiment: as above; format: binding
# T2 construct: The ipsilateral hemisphere of the brain was immediately dissected and homogenized in chilled lysis buffer; from tissue; host or cells: ipsilateral brain hemisphere lysate of CCI or sham mice
# T2 sequence (Q9Z2I9 54-463): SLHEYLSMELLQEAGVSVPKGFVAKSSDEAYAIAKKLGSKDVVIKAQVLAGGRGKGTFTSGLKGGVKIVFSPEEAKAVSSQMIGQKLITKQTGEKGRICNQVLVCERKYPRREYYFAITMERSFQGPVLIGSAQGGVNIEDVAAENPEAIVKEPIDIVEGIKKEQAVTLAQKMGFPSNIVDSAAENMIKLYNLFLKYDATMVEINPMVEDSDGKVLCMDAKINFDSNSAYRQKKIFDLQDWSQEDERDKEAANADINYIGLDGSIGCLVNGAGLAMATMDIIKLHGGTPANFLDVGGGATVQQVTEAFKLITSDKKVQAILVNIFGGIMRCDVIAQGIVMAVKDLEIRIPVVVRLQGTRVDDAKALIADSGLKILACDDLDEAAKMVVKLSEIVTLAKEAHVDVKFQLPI
# T2 sequence (Q9WUM5 35-346 partner): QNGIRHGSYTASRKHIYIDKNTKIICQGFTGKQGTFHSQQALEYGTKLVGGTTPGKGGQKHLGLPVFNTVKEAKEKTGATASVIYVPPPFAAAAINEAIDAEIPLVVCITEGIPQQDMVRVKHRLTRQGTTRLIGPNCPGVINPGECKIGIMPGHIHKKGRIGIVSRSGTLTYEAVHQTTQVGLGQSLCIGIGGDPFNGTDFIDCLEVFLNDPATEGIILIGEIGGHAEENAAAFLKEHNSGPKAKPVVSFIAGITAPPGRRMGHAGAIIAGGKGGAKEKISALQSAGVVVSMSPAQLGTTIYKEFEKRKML
# From the text: as §1, §2, §3
# [3] = molecular target: T3, Heat shock cognate 71 kDa protein (Mus musculus, UniProt P63017); experiment: as above; format: binding
# T3 construct: The ipsilateral hemisphere of the brain was immediately dissected and homogenized in chilled lysis buffer; from tissue; host or cells: ipsilateral brain hemisphere lysate of CCI or sham mice
# T3 sequence (P63017 whole entry): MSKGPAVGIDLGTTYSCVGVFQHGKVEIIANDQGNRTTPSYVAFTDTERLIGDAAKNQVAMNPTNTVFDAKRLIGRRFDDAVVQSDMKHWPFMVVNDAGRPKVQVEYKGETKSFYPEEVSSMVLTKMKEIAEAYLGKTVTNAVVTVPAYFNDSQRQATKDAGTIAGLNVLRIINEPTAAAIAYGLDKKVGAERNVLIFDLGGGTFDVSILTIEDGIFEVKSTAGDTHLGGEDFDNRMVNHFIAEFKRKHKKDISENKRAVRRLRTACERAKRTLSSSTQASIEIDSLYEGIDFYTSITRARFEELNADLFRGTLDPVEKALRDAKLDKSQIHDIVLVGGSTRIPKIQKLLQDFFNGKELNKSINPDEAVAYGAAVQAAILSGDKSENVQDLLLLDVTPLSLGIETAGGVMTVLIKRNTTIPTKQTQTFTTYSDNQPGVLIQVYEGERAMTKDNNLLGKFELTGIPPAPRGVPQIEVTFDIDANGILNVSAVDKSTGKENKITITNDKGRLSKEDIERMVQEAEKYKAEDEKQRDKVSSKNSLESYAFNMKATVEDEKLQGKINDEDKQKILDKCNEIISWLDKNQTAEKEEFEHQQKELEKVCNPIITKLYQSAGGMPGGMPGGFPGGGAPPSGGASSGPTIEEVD
# From the text: as §1, §2, §3
# [4] = molecular target: T4, Endoplasmic reticulum chaperone BiP (Mus musculus, UniProt P20029); experiment: as above; format: binding
# T4 construct: The ipsilateral hemisphere of the brain was immediately dissected and homogenized in chilled lysis buffer; from tissue; host or cells: ipsilateral brain hemisphere lysate of CCI or sham mice
# T4 sequence (P20029 20-655): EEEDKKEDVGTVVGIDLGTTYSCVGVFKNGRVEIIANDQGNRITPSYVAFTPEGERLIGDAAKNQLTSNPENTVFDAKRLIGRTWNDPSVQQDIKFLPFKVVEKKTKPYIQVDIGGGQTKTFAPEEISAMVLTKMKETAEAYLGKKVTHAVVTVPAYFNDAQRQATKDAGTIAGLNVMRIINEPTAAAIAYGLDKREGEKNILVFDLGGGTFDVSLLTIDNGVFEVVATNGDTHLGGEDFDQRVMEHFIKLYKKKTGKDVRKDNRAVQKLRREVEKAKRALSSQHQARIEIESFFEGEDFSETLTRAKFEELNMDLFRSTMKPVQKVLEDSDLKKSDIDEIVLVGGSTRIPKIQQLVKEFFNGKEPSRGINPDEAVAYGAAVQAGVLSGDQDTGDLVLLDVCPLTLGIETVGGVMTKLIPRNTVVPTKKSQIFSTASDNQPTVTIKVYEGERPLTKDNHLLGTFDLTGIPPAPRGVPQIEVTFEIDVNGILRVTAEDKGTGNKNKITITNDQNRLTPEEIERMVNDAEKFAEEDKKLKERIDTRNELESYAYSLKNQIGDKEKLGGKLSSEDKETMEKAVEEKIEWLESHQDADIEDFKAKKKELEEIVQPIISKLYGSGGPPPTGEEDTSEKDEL
# From the text: as §1, §2, §3
sequence,measurement,setting,value
"GGDTFRDASQSMHF [dAb-CDR3, reference compound]",bioreactivity of control HCDR3 constructs on injured neural tissue,CCI injury sections,no detectable bioreactivity
"GPLDGKEEELRF [SP-CDR3, reference compound]",bioreactivity of control HCDR3 constructs on injured neural tissue,CCI injury sections,no detectable bioreactivity
"RLVRESSQEHTLSS [CH1, 5, chronic injury]",bioreactivity of chronic injury targeting HCDR3 constructs,CCI injury sections,negligible bioreactivity
"SLYGSSRHTAPISF (linker (positions not given here) via bromoacetamide scaffold; not fully specified; reading uncertain; also: cyclized on bromoacetamide scaffold with biotin, sites not given here) [A2, 2, acute stage; peptide cyclized on bromoacetamide scaffold containing biotin]",immunoprecipitation eluate separated by SDS-PAGE,tissue lysates,isolated proteins unique to the injury condition
same,sensitivity and affinity to the peri-injury region,"CCI injury sections; 1 day post-injury compared to sham, subacute, and chronic tissue sections",high sensitivity and affinity
same,bioreactivity determined by the fluorescence on 1 dpi tissue,CCI injury sections; in comparison to sham (p=0.0120) and 7 days post-injury tissue (p=0.0221),significant bioreactivity
same,"bioreactivity, 1 days post-injury versus 21 days post injury tissue",CCI injury sections; p=0.0658,No significant differences
same,# Peptides,[1],3
same,# Peptides,[2],4
"TAERDARTFQY (linker (positions not given here) via bromoacetamide scaffold; not fully specified; reading uncertain; also: cyclized on bromoacetamide scaffold with biotin, sites not given here) [A1, 1, acute stage; peptide cyclized on bromoacetamide scaffold containing biotin]",IHC signal on injured tissue,CCI injury sections; fixed mouse brain tissue at 1 dpi,no detectable signal; also recorded: did not show detectable bioreactivity
"TDCQETPYELKS [CH2, 6, chronic injury]",bioreactivity of chronic injury targeting HCDR3 constructs,CCI injury sections,non-specific staining
"TDLAVAHPVRY (linker (positions not given here) via bromoacetamide scaffold; not fully specified; reading uncertain; also: cyclized on bromoacetamide scaffold with biotin, sites not given here) [SA1, 3, subacute stage; peptide cyclized on bromoacetamide scaffold containing biotin]",immunoprecipitation eluate separated by SDS-PAGE,tissue lysates,isolated proteins unique to the injury condition
same,stain in the peri-injury region of injured tissue,CCI injury sections; 7 days post-injury tissue,Positive stain; also recorded: positively binding
same,"bioreactivity, 7 days post-injury versus 1 days post-injury or 21 days post-injury tissue","CCI injury sections; p=0.0993 (1 dpi), p=0.0780 (21 dpi)",No significant differences
same,localization of stain in sham brain sections,"CCI injury sections; sham brain sections, p=0.0079 versus 7 days post-injury",not observed
same,# Peptides,[3],6
same,# Peptides,[4],6
"TGHEGENEMAS [HE-CDR3, reference compound]",bioreactivity of control HCDR3 constructs on injured neural tissue,CCI injury sections,no detectable bioreactivity
